Assay results as given in patent US11191765B2, “Heterocyclic compounds for the inhibition of PASK” (BioEnergenix LLC, priority 2012, dated 2021).

What follows are compounds tested against PASK (UniProt #Q96RG2; human recombinant N-terminal GST tagged construct, residues 879-1323) (Homo sapiens (Human), UniProt Q96RG2) (assay: PASK ATP Radiochemical Assay). Settings: radiochemical 33P-ATP assay, Myelin Basic Protein substrate, 120 min at room temperature; read-out: IC50 Kinase Domain.
Assay type: biochemical
Method: Biochemical Assay for hPASK Activity
PASK ATP Radiochemical Assay
Purified PASK (UniProt #Q96RG2; human recombinant N-terminal GST tagged construct, residues 879-1323) from insect cells (final concentration 5 nM) is added to freshly prepared Base Reaction Buffer containing 20 mM HEPES (pH 7.5), 10 mM MgCl2, 1 mM EGTA, 0.02% Brij35, 0.02 mg/ml BSA, 0.1 mM Na3VO4, 2 mM DTT, 1% DMSO and Myelin Basic Protein (20 μM final). Test compounds in DMSO are then added and the mixture, followed by delivery of ^33P-ATP (specific activity 0.01 μCi/μl final) to initiate the reaction. The kinase reaction is incubated for 120 min at room temperature. The entire reaction mixture is washed through onto a P81 Phosphocellulose paper and washed three times for 10 minutes in 75 mM phosphoric acid and once in methanol prior to drying and scintillation counting.

Sequence of PASK (Q96RG2 879-1323, change not shown): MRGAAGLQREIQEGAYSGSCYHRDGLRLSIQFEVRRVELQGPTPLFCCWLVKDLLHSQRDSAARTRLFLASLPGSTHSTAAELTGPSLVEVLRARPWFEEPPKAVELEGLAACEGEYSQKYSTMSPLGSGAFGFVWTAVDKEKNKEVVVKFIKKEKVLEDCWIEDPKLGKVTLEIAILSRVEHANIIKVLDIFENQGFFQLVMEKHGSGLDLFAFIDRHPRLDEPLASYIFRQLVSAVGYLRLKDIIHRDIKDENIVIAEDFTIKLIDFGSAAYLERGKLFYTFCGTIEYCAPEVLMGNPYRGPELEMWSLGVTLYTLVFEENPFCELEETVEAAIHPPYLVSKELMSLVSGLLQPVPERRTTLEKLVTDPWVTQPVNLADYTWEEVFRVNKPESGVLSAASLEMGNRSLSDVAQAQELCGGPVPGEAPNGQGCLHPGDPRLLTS

Compound	IC50
COc1cc(-c2cc(=O)n3nc(-c4ccc(Cl)cc4)nc3[nH]2)ccc1Cl [Example 8, 5-(4-Chloro-3-methoxyphenyl)-2-(4-chlorophenyl)-[1,2,4]triazolo[1,5-a]pyrimidin-7(4H)-one]	≤ 10 µM
O=c1cc(-c2ccc3c(c2)OCO3)[nH]c2nc(-c3ccc(Cl)cc3)nn12 [Example 15, 5-(Benzo[d][1,3]dioxol-5-yl)-2-(4-chlorophenyl)-[1,2,4]triazolo[1,5-a]pyrimidin-7(4H)-one]	≤ 10 µM
COc1ccccc1-c1cc(=O)n2nc(-c3ccccc3)nc2[nH]1 [Example 30, 5-(2-Methoxyphenyl)-2-phenyl-[1,2,4]triazolo[1,5-a]pyrimidin-7(4H)-one]	≤ 10 µM
O=c1cc(-c2ccccc2)[nH]c2nc(-c3ccccc3)nn12 [Example 31, 2,5-Diphenyl-[1,2,4]triazolo[1,5-a]pyrimidin-7(4H)-one]	≤ 10 µM
COc1ccc(-c2cc(=O)n3nc(-c4ccccc4)nc3[nH]2)cc1 [Example 32, 5-(4-Methoxyphenyl)-2-phenyl-[1,2,4]triazolo[1,5-a]pyrimidin-7(4H)-one]	≤ 10 µM
COc1cccc(-c2cc(=O)n3nc(-c4ccccc4)nc3[nH]2)c1 [Example 33, 5-(3-Methoxyphenyl)-2-phenyl-[1,2,4]triazolo[1,5-a]pyrimidin-7(4H)-one]	≤ 10 µM
COc1ccc(-c2cc(=O)n3nc(-c4ccc(Cl)cc4)nc3[nH]2)cc1 [Example 34, 2-(4-Chlorophenyl)-5-(4-methoxyphenyl)-[1,2,4]triazolo[1,5-a]pyrimidin-7(4H)-one]	≤ 10 µM
COc1ccc(-c2nc3[nH]c(-c4ccccc4)cc(=O)n3n2)cc1 [Example 35, 2-(4-Methoxyphenyl)-5-phenyl-[1,2,4]triazolo[1,5-a]pyrimidin-7(4H)-one]	≤ 10 µM
O=c1cc(-c2ccccc2)[nH]c2nc(-c3ccccc3Cl)nn12 [Example 36, 2-(2-Chlorophenyl)-5-phenyl-[1,2,4]triazolo[1,5-a]pyrimidin-7(4H)-one]	≤ 10 µM
COc1ccc(-c2cc(=O)n3ncnc3[nH]2)cc1OC [Example 37, 5-(3,4-Dimethoxyphenyl)-[1,2,4]triazolo[1,5-a]pyrimidin-7(4H)-one]	≤ 10 µM
COc1ccc(-c2cc(=O)n3ncnc3[nH]2)cc1 [Example 38, 5-(4-Methoxyphenyl)-[1,2,4]triazolo[1,5-a]pyrimidin-7(4H)-one]	≤ 10 µM

What follows are compounds tested against PASK (Invitrogen) (Homo sapiens (Human), UniProt Q96RG2) (assay: PAS Kinase FRET Assay). Settings: TR-FRET (665 nm/615 nm), Ulight-peptide substrate, 2 hours at 25° C.; read-out: IC50 Kinase Domain.
Sequence of PASK (Invitrogen) (Q96RG2 999-1251): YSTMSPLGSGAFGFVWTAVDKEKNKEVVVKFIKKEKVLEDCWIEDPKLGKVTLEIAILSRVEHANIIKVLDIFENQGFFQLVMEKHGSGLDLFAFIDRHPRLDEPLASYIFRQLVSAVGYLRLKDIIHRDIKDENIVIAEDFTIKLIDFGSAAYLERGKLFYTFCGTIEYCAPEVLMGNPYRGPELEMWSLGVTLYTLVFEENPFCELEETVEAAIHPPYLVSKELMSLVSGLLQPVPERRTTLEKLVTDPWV
Assay type: biochemical
Excerpt: The aim of the FRET assay is to determine the inhibition potential of test compounds on targeted kinase. This assay platform provides a homogenous screening method for measuring kinase activity by quantitating the amount of phospho-substrate in solution following a kinase reaction.
In the presence of kinase and ATP, the Ulight-peptide is phosphorylated and captured by an anti-phospho-substrate antibody, which brings the Eu chelate donor and Ulight acceptor dyes into close proximity. Upon excitation at 340 nm, the Eu chelate transfers its energy to the Ulight dye, resulting in a fluorescent light emission at 665 nm.
Titration of kinase at 1 mM ATP was achieved via the following protocol. After making serial three-fold dilutions of PASK (Invitrogen) in reaction buffer across the plate; 5 μl of kinase dilution and 5 μl substrate/ATP mix were added to the wells of the white Optiplate-384 (PerkinElmer). The contents of the plate were and incubated at RT for 1 h. The reaction was stopped by adding 5 μl of stop solution to each test well followed by mixing and incubation at RT for 10 minutes. 5 μl of detection mix (detection antibody diluted in detection buffer) was added; the contents of the plate were mixed and then incubated in the dark for 1 hour at RT. The signal was recorded at TR-FRET mode (665 nm/615 nm). The results were graphed to calculate the EC50.
Titration of ATP at the EC50 concentration of kinase to determine ATP Km,app. was performed using the following method. After making serial dilutions of ATP (Invitrogen), 5 μl of ATP dilution and 5 μl substrate/kinase mix were added to the wells of the white Optiplate-384 (PerkinElmer). The contents of the plate were and incubated at RT for 1 h. The reaction was stopped by adding 5 μl of stop solution to each test well followed by mixing and incubation at RT for 10 minutes. 5 μl of detection mix (detection antibody diluted in detection buffer) was added; the contents of the plate were mixed and then incubated in the dark for 1 hour at RT. The signal was recorded at TR-FRET mode (665 nm/615 nm). The results were graphed to calculate the EC50 as the ATP Km,app.
Compound screening was done via the following method. 10 mM stock solution of test compound in DMSO was prepared by dissolving test compound in DMSO at RT for 1 hour, and then sonicating at 100% output for 8 minutes. If compound is not soluble under this condition, it was diluted to 3 mM. Kinase reaction buffer was prepared containing 10 mM MgCl2, 50 mM HEPES, 1 mM EGTA, 0.01% TWEEN-20, 2 mM DTT. Serial dilutions of the test compounds were prepared at 4×final assay concentrations using Freedom EVO200® dispensing system as follows: 12×10^−5 M, 4×10^−5 M, 1.33×10^−5 M, 4.44×10^−6 M, 1.48×10^−6 M, 4.92×10^−7 M, 1.65×10^−7 M, 5.48×10^−7 M, 1.82×10^−8 M, 6.09×10^−9, 2.03×10^−9 M. Test compounds (2.5 μl at 4×the final assay concentration) was added to wells using Freedom EVO200® dispensing system. As a positive control, 2.5 μl of positive compound was added to assay wells, and 2.5 μl of DMSO to assay wells as vehicle control. Kinase solution was prepared in reaction buffer at 2×final assay concentration. Kinase solution (5 μl) was added to each well of the assay plate. The substrate and ATP solution was prepared in kinase reaction buffer at 4×final assay concentration. The kinase reaction was started by adding 2.5 μl of substrate+ATP mix solution to each well of the assay plate. The plate is mixed on a plate shaker; then covered and allowed to react for 2 hours in the dark at 25° C. without shaking. The reaction was stopped by adding 5 μl of stop solution to each test well followed by mixing and incubation at RT for 10 minutes in the dark. 5 μl of detection mix (detection antibody diluted in detection buffer) was added; the contents of the plate were mixed and then incubated in the dark for 1 hour at RT. The signal was recorded at TR-FRET mode (665 nm/615 nm).

Compound	IC50
COc1cc(-c2cc(=O)n3nc(-c4ccc(Cl)cc4)nc3[nH]2)ccc1Cl [Example 8, 5-(4-Chloro-3-methoxyphenyl)-2-(4-chlorophenyl)-[1,2,4]triazolo[1,5-a]pyrimidin-7(4H)-one]	≤ 10 µM
O=c1cc(-c2ccc3c(c2)OCO3)[nH]c2nc(-c3ccc(Cl)cc3)nn12 [Example 15, 5-(Benzo[d][1,3]dioxol-5-yl)-2-(4-chlorophenyl)-[1,2,4]triazolo[1,5-a]pyrimidin-7(4H)-one]	≤ 10 µM
O=c1cc(-c2ccc3nn[nH]c3c2)[nH]c2nc(-c3ccccc3Cl)nn12 [Example 22, 5-(1H-Benzo[d][1,2,3]triazol-6-yl)-2-(2-chlorophenyl)-[1,2,4]triazolo[1,5-a]pyrimidin-7(4H)-one]	≤ 10 µM
Cc1ccccc1-c1nc2[nH]c(-c3ccc4nn[nH]c4c3)cc(=O)n2n1 [Example 23, 5-(1H-benzo[d][1,2,3]triazol-6-yl)-2-o-tolyl-[1,2,4]triazolo[1,5-a]pyrimidin-7(4H)-one]	≤ 10 µM
NC(=O)c1nc2[nH]c(-c3ccc4nn[nH]c4c3)cc(=O)n2n1 [Example 24, 5-(1H-benzo[d][1,2,3]triazol-6-yl)-7-oxo-4,7-dihydro-[1,2,4]triazolo[1,5-a]pyrimidine-2-carboxamide]	≤ 10 µM
CCn1ncc2cc(-c3cc(=O)n4nc(-c5ccccc5Cl)nc4[nH]3)ccc21 [Example 25, 2-(2-chlorophenyl)-5-(1-ethyl-1H-indazol-5-yl)-[1,2,4]triazolo[1,5-a]pyrimidin-7(4H)-one]	≤ 10 µM
COc1ccc(-c2cc(=O)n3ncnc3[nH]2)cc1 [Example 26, 5-(4-Methoxyphenyl)-[1,2,4]triazolo[1,5-a]pyrimidin-7(4H)-one]	≤ 10 µM
COc1ccc(-c2cc(=O)n3nc(C)nc3[nH]2)cc1 [Example 27, 5-(4-Methoxyphenyl)-2-methyl-[1,2,4]triazolo[1,5-a]pyrimidin-7(4H)-one]	≤ 10 µM
O=c1cc(-c2ccc3c(c2)OCCO3)[nH]c2nc(-c3ccccn3)nn12 [Example 28, 5-(2,3-Dihydrobenzo[b][1,4]dioxin-6-yl)-2-(pyridin-2-yl)-[1,2,4]triazolo[1,5-a]pyrimidin-7(4H)-one]	≤ 10 µM
O=c1cc(-c2ccc3c(c2)OCO3)[nH]c2nc(-c3ccccn3)nn12 [Example 29, 5-(Benzo[d][1,3]dioxol-5-yl)-2-(pyridin-2-yl)-[1,2,4]triazolo[1,5-a]pyrimidin-7(4H)-one]	≤ 10 µM
COc1ccc(-c2cc(=O)n3nc(-c4ccc(Cl)cc4)nc3[nH]2)cc1 [Example 34, 2-(4-Chlorophenyl)-5-(4-methoxyphenyl)-[1,2,4]triazolo[1,5-a]pyrimidin-7(4H)-one]	≤ 10 µM
O=c1cc(-c2ccc3[nH]nnc3c2)[nH]c2nc(-c3ccc(Cl)cc3)nn12 [Example 39, 5-(1H-Benzo[d][1,2,3]triazol-5-yl)-2-(4-chlorophenyl)-[1,2,4]triazolo[1,5-a]pyrimidin-7(4H)-one]	≤ 10 µM
O=c1cc(-c2ccc3[nH]nnc3c2)[nH]c2nc(-c3ccc(F)cc3)nn12 [Example 40, 5-(1H-Benzo[d][1,2,3]triazol-5-yl)-2-(4-fluorophenyl)-[1,2,4]triazolo[1,5-a]pyrimidin-7(4H)-one]	≤ 10 µM
O=c1cc(-c2ccc3[nH]nnc3c2)[nH]c2nc(-c3ccccc3)nn12 [Example 41, 5-(1H-Benzo[d][1,2,3]triazol-5-yl)-2-phenyl-[1,2,4]triazolo[1,5-a]pyrimidin-7(4H)-one]	≤ 10 µM
CCn1ncc2cc(-c3cc(=O)n4nc(-c5ccc(Cl)cc5)nc4[nH]3)ccc21 [Example 42, 2-(4-Chlorophenyl)-5-(1-ethyl-1H-indazol-5-yl)-[1,2,4]triazolo[1,5-a]pyrimidin-7(4H)-one]	≤ 10 µM
Cc1nc2[nH]c(-c3ccc4[nH]nnc4c3)cc(=O)n2n1 [Example 43, 5-(1H-Benzo[d][1,2,3]triazol-5-yl)-2-methyl-[1,2,4]triazolo[1,5-a]pyrimidin-7(4H)-one]	≤ 10 µM
O=c1cc(-c2ccc3[nH]ncc3c2)[nH]c2nc(-c3ccc(Cl)cc3)nn12 [Example 44, 2-(4-Chlorophenyl)-5-(1H-indazol-5-yl)-[1,2,4]triazolo[1,5-a]pyrimidin-7(4H)-one]	≤ 10 µM
O=c1cc(-c2ccc3[nH]nnc3c2)[nH]c2nc(Cc3ccccc3)nn12 [Example 45, 5-(1H-Benzo[d][1,2,3]triazol-5-yl)-2-benzyl-[1,2,4]triazolo[1,5-a]pyrimidin-7(4H)-one]	≤ 10 µM
